Assay [1] concerns the target Kir1.1 (ROMK1) (Homo sapiens (Human), UniProt P48048). Kind of assay: Electrophysiology Assay (whole cell voltage clamp, IonWorks Quattro). The assay is classed as cell-based. As to conditions: block during voltage step to 0 mV. A digest of the protocol:
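CHO cells stably expressing the channel, induced overnight with 1 mM sodium butyrate, were recorded in amphotericin-perforated patch mode. The test pulse was a 100 ms step to 0 mV from −70 mV, then a −70 to +70 mV ramp, applied before and after a 6 min compound incubation. Current amplitudes were compared.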
On the technique in general: The patch-clamp technique gives a direct electrical read-out from membranes.

Assay [2] concerns the target hROMK (hKir1.1) (Homo sapiens (Human), UniProt P48048). The assay can be described thus: Thallium Flux Assay (ROMK channel functional thallium flux, FLIPR-Tetra). The format is cell-based. A digest of the protocol:
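HEK293 cells stably expressing hROMK loaded with FluxOR dye for 90 min, then incubated with compound for 30 min at 23-25 °C. Normalized to a 3 μM standard ROMK inhibitor as % fluorescence change.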

[3] abbreviates: Chinese hamster ovary cells stably expressing Kir1.1, read-out: Electrophysiology IC50.
Where [4] appears, read: HEK293 cells stably expressing hROMK (hKir1.1), read-out: Thallium Flux IC50.
Setting [5] is: Electrophysiology IC50, Chinese hamster ovary cells stably expressing Kir1.1.

Read-outs that look alike come from different tables or passages of the source.

Chain of hROMK (hKir1.1) (P48048 whole entry): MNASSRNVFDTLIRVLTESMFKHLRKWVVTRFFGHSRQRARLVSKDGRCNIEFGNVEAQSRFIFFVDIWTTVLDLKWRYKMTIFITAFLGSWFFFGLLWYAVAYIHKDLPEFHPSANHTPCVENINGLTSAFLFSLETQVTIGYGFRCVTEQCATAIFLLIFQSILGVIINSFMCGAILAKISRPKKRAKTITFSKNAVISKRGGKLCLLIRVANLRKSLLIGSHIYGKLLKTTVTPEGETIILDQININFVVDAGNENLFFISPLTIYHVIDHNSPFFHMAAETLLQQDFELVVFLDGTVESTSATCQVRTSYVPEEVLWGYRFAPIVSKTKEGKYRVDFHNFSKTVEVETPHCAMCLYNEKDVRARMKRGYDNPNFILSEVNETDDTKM
Chain of Kir1.1 (ROMK1) (P48048 whole entry): as above

Regarding `Cc1c([C@@H]2CN3CCN(C(=O)Cc4c(F)cc(-n5cnnn5)cc4F)C[C@@H]3CO2)ccc2c1COC2=O` [Example 79, 5-[(3R,9aR)-8-{[2,6-difluoro-4-(1H-tetrazol-1-yl)phenyl]acetyl}octahydropyrazino[2,1-c][1,4]oxazin-3-yl]-4-methyl-2-benzofuran-1(3H)-one], the IC50 – broadly, the midpoint of a concentration-inhibition curve – is 190 nM in assay [1] (setting [3]) and 260 nM in assay [2] (setting [4]).

Regarding `Cc1c([C@@H]2CN3CCN(C(=O)Cc4ccc(-n5cnnn5)cc4)C[C@H]3CN2)ccc(F)c1C#N` [Example 99, 3-((3R,9aR)-8-(2-(4-(1H-tetrazol-1-yl)phenyl)acetyl)octahydro-1H-pyrazino[1,2-a]pyrazin-3-yl)-6-fluoro-2-methylbenzonitrile], the IC50 worked out at 180 nM in assay [1] (setting [3]) and 70 nM in assay [2] (setting [4]).

On to `Cc1c([C@H]2CN3CCN(C(=O)Cc4ccc(-n5cnnn5)cc4)C[C@H]3CN2)ccc2c1COC2=O` [Example 100], for which the IC50 was determined as 250 nM in assay [1] (setting [5]) and 430 nM in assay [2] (setting [4]).

Regarding `Cc1c([C@H]2CN3CCN(C(=O)Cc4ccc(-n5cnnn5)cc4)C[C@H]3CN2)ccc(F)c1C#N` [Example 101], the IC50 turned out to be 50 nM in assay [1] (setting [5]) and 60 nM in assay [2] (setting [4]).

Regarding `Cc1c([C@@H]2CN3CCN(C(=O)Cc4c(F)cc(-n5cnnn5)cc4F)C[C@H]3CN2)ccc(F)c1C#N` [Example 102], the IC50 in assay [1] (setting [5]) was 160 nM; in assay [2] (Thallium Flux IC50) it was 150 nM.

For the compound `Cc1c([C@H]2CN3CCN(C(=O)Cc4c(F)cc(-n5cnnn5)cc4F)C[C@H]3CN2)ccc(F)c1C#N` [Example 103], the IC50 amounted to 80 nM in assay [1] (setting [5]) and 110 nM in assay [2] (Thallium Flux IC50).

On to `C[C@@H]1Cc2cc([C@@H]3CN4CCN(C(=O)Cc5ccc(-n6cnnn6)cc5)C[C@H]4CN3)ccc2C(=O)O1` [Example 104], for which the IC50 in assay [1] (setting [5]) was 380 nM; in assay [2] (setting [4]), 290 nM.

For `C[C@@H]1Cc2cc([C@@H]3CN4CCN(C(=O)Cc5c(F)cc(-n6cnnn6)cc5F)C[C@H]4CN3)ccc2C(=O)O1` [Example 105], the IC50 came to 180 nM in assay [1] (setting [5]) and 360 nM in assay [2] (setting [4]).
